Data reported in US6413997B1, “3-(substituted phenyl)-5-(substituted heterocyclyl)-1,2,4-triazole compounds” (priority 1998, dated 2002).

Tests used:
Format in all cases: in vivo
[1] = tested on: cotton aphids (aphis gossypii); assay: Insecticidal test for cotton aphid, foliar spray on infested squash cotyledons; conditions: 50 ppm spray, graded after 3 days, versus untreated check
Method: Insecticidal Test for Cotton Aphid (Aphis gossypii)
To prepare spray solutions, 2 mg of each test compound was dissolved into 2 mL of a 90:10 acetone:ethanol solvent. This 2 mL of chemical solution was added to 38 mL of water containing 0.05% Tween 20 surfactant to produce a 50 ppm spray solution.
Squash cotyledons were infested with cotton aphid (all life stages16-20 hours prior to application of spray solution. The solution was sprayed on both sides of each infested squash cotyledon (0.5 mL×2 each side with a sweeping action using a total of 2 mL of spray solution. The plants were allowed to air dry and held for 3 days in a controlled room at 26° C. and 40% RH after which time the test was graded. Grading was by actual count using a dissecting microscope and comparison of test counts to the untreated check. Results are given in Table 1 as percent control based on population reduction versus the untreated.

[2] = tested on: twospotted spider mite (tetranychus uriticae); assay: Two-spotted spider mite test, ovicide method on cotton leaf discs; conditions: leaf disc dip, 6 days, hatched larvae versus untreated discs
Method: Insecticidal Test for Two-spotted Spider Mite (Tetranychus urticae)
Ten adult female two-spotted spider mites were placed on eight 2.2 cm leaf discs of cotton leaf, allowed to oviposit over 24 hours, and thereafter removed. The leaf discs were immersed in 100 ppm test solutions for 3 seconds, then allowed to dry with sixteen discs left untreated as a negative control. Discs were placed on an agar substrate and held at 24° C. and 90% relative humidity for 6 days.

[3] = tested on: sweetpotato whitefly (bemisia tabaci); assay: Sweetpotato whitefly test on cotton plants under laboratory conditions; conditions: 800 ppm (table footnote), spray on cotton plants with eggs, 21 days, spent pupal cases versus solution-only plants
Method: Evaluation of Tests Compounds on Sweetpotato Whitefly (Bemisia tabacia) Under Laboratory Conditions
Four mg of each test compound was dissolved by adding 5 ml of a 90:10 acetone:ethanol solvent mixture to the vial containing the sample compound. […]
Five-week-old cotton plants reared in a greenhouse were stripped of all foliage except for the two uppermost true leaves that were greater than 5 cm in diameter. These plants were then placed into a laboratory colony of whiteflies for three days for oviposition by the colony females. All whiteflies were then removed from the test plants with pressurized air. The spray solution was then applied to the test plants with a hand-held syringe fitted with hollow cone nozzle. One mL spray solution was applied to each leaf top and bottom for a total of 4 mL per plant. Four replications of each test compound utilized a total of 16 mL spray solution. Plants were air dried and then placed in a holding chamber (26° C. and 40% RH for 21 days. Compound efficacy was evaluated by counting, under a dissecting microscope, the number of spent pupal cases per leaf. A spent pupal case represents a whitefly egg that has undergone full development to achieve adult status, thus indicating lack of control.
Percent control based on reduction of spent pupal cases of a test compound compared to solution-only (no test compound sprayed plants is reported in Table 1.

| Compound | CA: activity at 50 ppm against cotton aphids (rating of % mortality / percent control) [1] | TSSM: activity at 100 ppm against twospotted spider mite (rating of % mortality / percent control) [2] | WF: activity at 800 ppm against sweetpotato whitefly (rating of % mortality / percent control) [3] |
| --- | --- | --- | --- |
| Cc1cc(-c2nc(-c3c(F)cccc3F)nn2C)nn1C [Compound 71] | A (91-100) | G (Inactive) | G (Inactive) |
| Cc1cc(-c2nc(-c3c(F)cccc3Cl)nn2C)nn1C [Compound 72] | A (91-100) | C (71-80) | G (Inactive) |
| Cn1nc(-c2c(F)cccc2F)nc1-c1cnn(C)c1[N+](=O)[O-] [Compound 78] | A (91-100) | A (91-100) | G (Inactive) |
| Cn1nc(-c2c(F)cccc2F)nc1-c1cnn(-c2ccc(Cl)cc2)c1C(F)(F)F [Compound 79] | A (91-100) | G (Inactive) | G (Inactive) |
| Cn1nc(-c2c(F)cccc2F)nc1-c1ccc(Br)n1C [Compound 85] | B (81-90) | E (51-60) | G (Inactive) |
| Cn1nc(-c2c(F)cccc2F)nc1-c1cc(Br)c(Br)n1C [Compound 86] | A (91-100) | G (Inactive) | G (Inactive) |
